The source of these data is patent publication US20250302832A1, “PYRAZINE DERIVATIVES AND USES THEREOF” (FOGHORN THERAPEUTICS INC., priority 2022, published 2025).

Some results are limits rather than exact numbers.

One assay addresses T1, HiBit-BRM fusion protein (Homo sapiens, UniProt P51531).
T1 construct: expressed in transfected cells
The experiment in a line: HiBiT-BRM cell-based degradation assay (Nano-Glo HiBiT lytic detection, 24 h). The note with it: HeLa cell line expressing HiBiT-BRM; for DC50: read-out: BRM HiBit Degradation IC50. A digest of the protocol: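 Stable HeLa HiBiT-BRM cells treated 24 h with compounds (10-point 3-fold dilutions, 30 μM final top dose, duplicate). HiBiT levels read by Nano-Glo lytic luminescence; % degradation normalised to DMSO (high control) and 2 μM reference BRM/BRG1 degrader (low control).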
A general note: HiBiT is a short tag that completes a luciferase, so light tracks the accessible tagged protein.

Assay [1] has as its target T2, HiBit-BRG1 fusion protein (Homo sapiens, UniProt P51532).
T2 construct: expressed in transfected cells
The experiment in a line: HiBiT-BRG1 cell-based degradation assay (Nano-Glo HiBiT lytic detection, 24 h). The note with it: HeLa cell line expressing HiBit-BRG1 and LgBit; for Dmax: read-out: BRG1 HiBit Degradation Maximum (%); for DC50: read-out: BRMG1 HiBit Degradation IC50. In short, it runs like this:
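HeLa cells stably expressing HiBiT-BRG1 and LgBiT, 5000 per well, compound-treated 24 h, equilibrated 15 min at room temperature, then lysed with LgBiT-containing Nano-Glo HiBiT lytic reagent and luminescence read. % degradation normalised between DMSO (high control) and 2 μM reference BRM/BRG1 degrader (low control).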

T2 sequence (P51532 whole entry, the tested form may be a part): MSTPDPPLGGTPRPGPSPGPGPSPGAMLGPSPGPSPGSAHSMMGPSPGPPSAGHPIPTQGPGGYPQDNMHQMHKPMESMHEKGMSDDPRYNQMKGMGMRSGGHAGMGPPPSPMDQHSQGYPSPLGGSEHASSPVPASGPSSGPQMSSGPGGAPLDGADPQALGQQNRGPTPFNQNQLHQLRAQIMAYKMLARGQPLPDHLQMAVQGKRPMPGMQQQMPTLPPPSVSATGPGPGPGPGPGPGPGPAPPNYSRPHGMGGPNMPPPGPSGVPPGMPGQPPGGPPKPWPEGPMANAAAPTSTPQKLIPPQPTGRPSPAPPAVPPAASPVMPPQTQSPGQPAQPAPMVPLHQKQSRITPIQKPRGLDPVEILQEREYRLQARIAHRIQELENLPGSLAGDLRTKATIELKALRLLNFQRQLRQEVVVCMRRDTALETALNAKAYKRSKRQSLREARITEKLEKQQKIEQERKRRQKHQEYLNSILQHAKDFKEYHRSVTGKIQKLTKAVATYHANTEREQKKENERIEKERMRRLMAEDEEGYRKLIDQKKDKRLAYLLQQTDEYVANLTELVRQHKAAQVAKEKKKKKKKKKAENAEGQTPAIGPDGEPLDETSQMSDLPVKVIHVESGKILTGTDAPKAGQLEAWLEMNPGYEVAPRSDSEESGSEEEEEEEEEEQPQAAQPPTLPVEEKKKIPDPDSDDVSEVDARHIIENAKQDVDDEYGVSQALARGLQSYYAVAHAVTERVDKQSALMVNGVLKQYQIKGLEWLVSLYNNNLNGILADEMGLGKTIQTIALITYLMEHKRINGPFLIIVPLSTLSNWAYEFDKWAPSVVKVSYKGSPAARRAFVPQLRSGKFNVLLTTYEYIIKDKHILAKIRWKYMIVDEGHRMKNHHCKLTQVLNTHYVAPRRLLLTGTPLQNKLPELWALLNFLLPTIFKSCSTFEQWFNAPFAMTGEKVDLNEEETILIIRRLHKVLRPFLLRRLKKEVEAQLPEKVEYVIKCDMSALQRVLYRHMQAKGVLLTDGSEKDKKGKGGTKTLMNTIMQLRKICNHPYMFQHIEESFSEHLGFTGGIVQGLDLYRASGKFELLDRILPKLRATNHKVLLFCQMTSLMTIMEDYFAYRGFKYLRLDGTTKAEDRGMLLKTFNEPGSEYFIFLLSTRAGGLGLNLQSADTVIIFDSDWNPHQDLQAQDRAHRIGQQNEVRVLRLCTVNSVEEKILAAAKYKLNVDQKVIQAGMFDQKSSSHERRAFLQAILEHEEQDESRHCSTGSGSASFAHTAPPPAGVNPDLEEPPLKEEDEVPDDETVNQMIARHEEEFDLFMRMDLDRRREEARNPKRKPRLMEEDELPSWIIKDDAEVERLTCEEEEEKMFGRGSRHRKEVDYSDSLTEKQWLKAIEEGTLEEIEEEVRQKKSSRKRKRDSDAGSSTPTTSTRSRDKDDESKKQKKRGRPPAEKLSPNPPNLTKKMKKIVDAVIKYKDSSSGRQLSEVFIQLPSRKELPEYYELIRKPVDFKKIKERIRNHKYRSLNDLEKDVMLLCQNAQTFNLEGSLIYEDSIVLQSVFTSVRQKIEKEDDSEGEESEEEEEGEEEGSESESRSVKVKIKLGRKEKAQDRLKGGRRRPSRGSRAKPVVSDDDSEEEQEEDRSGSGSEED
T1 sequence (P51531 whole entry, the tested form may be a part): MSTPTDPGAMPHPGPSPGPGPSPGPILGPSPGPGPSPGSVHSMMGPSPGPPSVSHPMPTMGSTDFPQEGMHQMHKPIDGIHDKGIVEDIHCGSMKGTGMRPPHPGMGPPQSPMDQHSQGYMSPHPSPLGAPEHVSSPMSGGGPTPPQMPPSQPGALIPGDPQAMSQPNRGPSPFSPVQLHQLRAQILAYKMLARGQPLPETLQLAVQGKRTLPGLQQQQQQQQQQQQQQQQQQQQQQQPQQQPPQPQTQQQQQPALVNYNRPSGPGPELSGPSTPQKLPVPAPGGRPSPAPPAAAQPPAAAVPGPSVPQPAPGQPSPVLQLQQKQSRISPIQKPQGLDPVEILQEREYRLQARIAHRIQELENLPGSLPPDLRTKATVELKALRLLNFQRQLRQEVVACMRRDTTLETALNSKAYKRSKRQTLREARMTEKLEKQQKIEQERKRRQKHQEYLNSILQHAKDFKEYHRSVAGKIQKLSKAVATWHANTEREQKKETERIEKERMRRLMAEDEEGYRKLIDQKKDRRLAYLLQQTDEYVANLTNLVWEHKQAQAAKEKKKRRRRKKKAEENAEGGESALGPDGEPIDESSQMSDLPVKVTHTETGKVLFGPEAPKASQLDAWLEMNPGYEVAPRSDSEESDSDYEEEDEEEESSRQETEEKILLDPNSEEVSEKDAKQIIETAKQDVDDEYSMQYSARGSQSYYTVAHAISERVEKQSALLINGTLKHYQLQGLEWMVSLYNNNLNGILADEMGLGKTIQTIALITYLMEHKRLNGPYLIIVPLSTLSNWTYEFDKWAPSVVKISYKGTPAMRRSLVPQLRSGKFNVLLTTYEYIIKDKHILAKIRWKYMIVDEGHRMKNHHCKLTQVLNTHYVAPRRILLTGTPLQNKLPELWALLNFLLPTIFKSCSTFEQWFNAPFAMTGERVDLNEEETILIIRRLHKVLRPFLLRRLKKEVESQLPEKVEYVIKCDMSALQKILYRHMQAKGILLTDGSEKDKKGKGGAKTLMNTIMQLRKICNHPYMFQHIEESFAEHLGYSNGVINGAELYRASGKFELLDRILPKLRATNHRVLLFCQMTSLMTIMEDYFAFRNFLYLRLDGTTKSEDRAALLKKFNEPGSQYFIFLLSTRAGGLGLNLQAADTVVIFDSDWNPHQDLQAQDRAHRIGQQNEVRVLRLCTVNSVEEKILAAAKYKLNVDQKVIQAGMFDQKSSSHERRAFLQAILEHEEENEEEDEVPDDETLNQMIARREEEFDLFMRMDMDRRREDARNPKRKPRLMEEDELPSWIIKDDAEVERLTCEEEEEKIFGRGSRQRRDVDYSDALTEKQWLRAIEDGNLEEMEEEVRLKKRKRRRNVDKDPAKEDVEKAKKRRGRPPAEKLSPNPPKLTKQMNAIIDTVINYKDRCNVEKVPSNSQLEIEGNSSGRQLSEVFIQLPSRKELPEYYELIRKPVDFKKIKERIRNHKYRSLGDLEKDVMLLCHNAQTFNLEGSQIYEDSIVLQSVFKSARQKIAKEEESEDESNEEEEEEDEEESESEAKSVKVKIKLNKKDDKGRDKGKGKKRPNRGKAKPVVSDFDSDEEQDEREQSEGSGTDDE

In the case of `CC(C)[C@@H](C(=O)N1C[C@H](O)C[C@H]1C(=O)N[C@@H](C)c1ccc(F)cc1)c1cc(-c2cnc(N3CC[C@H](c4cc5nnc(-c6ccccc6O)cc5n4C4CC4)C3)nc2)no1` [Compound 92, (2S,4R)-1-((R)-2-(3-(2-((S)-3-(5-cyclopropyl-3-(2-hydroxyphenyl)-5H-pyrrolo[3,2-c]pyridazin-6-yl)pyrrolidin-1-yl)pyrimidin-5-yl)isoxazol-5-yl)-3-methylbutanoyl)-N-((S)-1-(4-fluorophenyl)ethyl)-4-hydroxypyrrolidine-2-carboxamide], at HiBit-BRM fusion protein, the “BRM HiBit Degradation Maximum (%)” value is “A (“A” indicates maximum degradation ≥75%)” and the DC50 is less than 10 nM. Moreover, in assay [1], the Dmax is less than 50%.

With `Cc1ncsc1-c1ccc([C@H](C)NC(=O)[C@@H]2C[C@@H](O)CN2C(=O)[C@@H](c2cc(OCCN3CCC(c4cc5nnc(-c6ccccc6O)cc5n4C)CC3)no2)C(C)C)cc1` [Compound 20, (2S,4R)-4-hydroxy-1-[(2R)-2-[3-(2-{4-[3-(2-hydroxyphenyl)-5-methylpyrrolo[3,2-c]pyridazin-6-yl]piperidin-1-yl}ethoxy)-1,2-oxazol-5-yl]-3-methylbutanoyl]-N-[(1S)-1-[4-(4-methyl-1,3-thiazol-5-yl)phenyl]ethyl]pyrrolidine-2-carboxamide], on HiBit-BRM fusion protein, the “BRM HiBit Degradation Maximum (%)” value is given as “A (“A” indicates maximum degradation ≥75%)” and the DC50 is less than 10 nM. In assay [1], the Dmax is more than 75% and the DC50 was less than 10 nM.

With `Cc1ncsc1-c1ccc([C@H](C)NC(=O)[C@@H]2C[C@@H](O)CN2C(=O)[C@@H](c2cc(N(C)CCN3CC(c4cc5nnc(-c6ccccc6O)cc5n4C)C3)no2)C(C)C)cc1` [Compound 10, (2S,4R)-4-hydroxy-1-((R)-2-(3-((2-(3-(3-(2-hydroxyphenyl)-5-methyl-5H-pyrrolo[3,2-c]pyridazin-6-yl)azetidin-1-yl)ethyl)(methyl)amino)isoxazol-5-yl)-3-methylbutanoyl)-N-((S)-1-(4-(4-methylthiazol-5-yl)phenyl)ethyl)pyrrolidine-2-carboxamide], on HiBit-BRM fusion protein, the “BRM HiBit Degradation Maximum (%)” value is on record as “A (“A” indicates maximum degradation ≥75%)” and the DC50 was more than 10 nM. Besides, in assay [1], the Dmax is more than 50% and the DC50 is more than 1000 nM.

Turning to `C#Cc1ccc(CNC(=O)[C@@H]2C[C@@H](O)CN2C(=O)C(c2cc(N3CC4(CC(c5cc6nnc(-c7ccccc7O)cc6n5C5CCC5)C4)C3)no2)C(C)C)c(Cl)c1` (stereo partly drawn) [Compound 59, (2S,4R)-N-(2-chloro-4-ethynylbenzyl)-1-(2-(3-(6-(5-cyclobutyl-3-(2-hydroxyphenyl)-5H-pyrrolo[3,2-c]pyridazin-6-yl)-2-azaspiro[3.3]heptan-2-yl)isoxazol-5-yl)-3-methylbutanoyl)-4-hydroxypyrrolidine-2-carboxamide], on HiBit-BRM fusion protein, the “BRM HiBit Degradation Maximum (%)” value was “A (“A” indicates maximum degradation ≥75%)” and the DC50 was more than 10 nM. For the same compound, in assay [1], the Dmax is less than 50%.

As to `Cc1ncsc1-c1ccc([C@H](C)NC(=O)[C@@H]2C[C@@H](O)CN2C(=O)[C@@H](c2cc(N3CC[C@H](c4cc5nnc(-c6ccccc6O)cc5n4C4CCC4)C3)no2)C(C)C)cc1` [Compound 79, (2S,4R)-1-((R)-2-(3-((S)-3-(5-cyclobutyl-3-(2-hydroxyphenyl)-5H-pyrrolo[3,2-c]pyridazin-6-yl)pyrrolidin-1-yl)isoxazol-5-yl)-3-methylbutanoyl)-4-hydroxy-N-((S)-1-(4-(4-methylthiazol-5-yl)phenyl)ethyl)pyrrolidine-2-carboxamide], at HiBit-BRM fusion protein, the “BRM HiBit Degradation Maximum (%)” value was “A (“A” indicates maximum degradation ≥75%)” and the DC50 was more than 10 nM. For the same compound, in assay [1], the Dmax was less than 50%.

With `CC(C)C(C(=O)N1C[C@H](O)C[C@H]1C(=O)NCc1ccc(F)cc1)c1cc(N2CC3(CC(c4cc5nnc(-c6ccccc6O)cc5n4C4CCC4)C3)C2)no1` (stereo partly drawn) [Compound 50, (2S,4R)-1-(2-(3-(6-(5-cyclobutyl-3-(2-hydroxyphenyl)-5H-pyrrolo[3,2-c]pyridazin-6-yl)-2-azaspiro[3.3]heptan-2-yl)isoxazol-5-yl)-3-methylbutanoyl)-N-(4-fluorobenzyl)-4-hydroxypyrrolidine-2-carboxamide], at HiBit-BRM fusion protein, the “BRM HiBit Degradation Maximum (%)” value is “A (“A” indicates maximum degradation ≥75%)” and the DC50 was more than 10 nM. Also, the Dmax in assay [1] was less than 50%.

For `Cc1ncsc1-c1ccc([C@H](C)NC(=O)[C@@H]2C[C@@H](O)CN2C(=O)[C@@H](c2cc(-c3cnc(N4CC[C@H](c5cc6nnc(-c7ccccc7O)cc6n5C5(C)CC5)C4)nc3)no2)C(C)C)cc1` [Compound 104, (2S,4R)-4-hydroxy-1-((R)-2-(3-(2-((S)-3-(3-(2-hydroxyphenyl)-5-(1-methylcyclopropyl)-5H-pyrrolo[3,2-c]pyridazin-6-yl)pyrrolidin-1-yl)pyrimidin-5-yl)isoxazol-5-yl)-3-methylbutanoyl)-N-((S)-1-(4-(4-methylthiazol-5-yl)phenyl)ethyl)pyrrolidine-2-carboxamide], at HiBit-BRM fusion protein, the “BRM HiBit Degradation Maximum (%)” value is “A (“A” indicates maximum degradation ≥75%)” and the DC50 was less than 10 nM. For the same compound, in assay [1], the Dmax was more than 75% and the DC50 was less than 10 nM.

In the case of `Cc1ncsc1-c1ccc([C@H](C)NC(=O)[C@@H]2C[C@@H](O)CN2C(=O)[C@@H](c2cc(-c3ccnc(N4CC[C@@H](c5cc6nnc(-c7ccccc7O)cc6n5C5CC5)C4)n3)no2)C(C)C)cc1` [Compound 116, (2S,4R)-1-[(2R)-2-(3-{2-[(3R)-3-[5-cyclopropyl-3-(2-hydroxyphenyl)pyrrolo[3,2-c]pyridazin-6-yl]pyrrolidin-1-yl]pyrimidin-4-yl}-1,2-oxazol-5-yl)-3-methylbutanoyl]-4-hydroxy-N-[(1S)-1-[4-(4-methyl-1,3-thiazol-5-yl)phenyl]ethyl]pyrrolidine-2-carboxamide], on HiBit-BRM fusion protein, the “BRM HiBit Degradation Maximum (%)” value is on record as “A (“A” indicates maximum degradation ≥75%)” and the DC50 is more than 10 nM. The Dmax in assay [1] is less than 50%.

Consider `Cc1ncsc1-c1ccc([C@H](C)NC(=O)[C@@H]2C[C@@H](O)CN2C(=O)[C@@H](c2cc(-c3ccnc(N4CC[C@H](c5cc6nnc(-c7ccccc7O)cc6n5C5CC5)C4)n3)no2)C(C)C)cc1` [Compound 41], for which, on HiBit-BRM fusion protein, the “BRM HiBit Degradation Maximum (%)” value was “A (“A” indicates maximum degradation ≥75%)” and the DC50 was more than 10 nM. For the same compound, the Dmax in assay [1] is less than 50%.

As for `Cc1ncsc1-c1ccc([C@H](C)NC(=O)[C@@H]2C[C@@H](O)CN2C(=O)[C@H](c2cc(-c3cnc(N4CCC(c5cc6nnc(-c7ccccc7O)cc6n5C5CC5)CC4)nc3)no2)C(C)C)cc1` [Compound 26, (2S,4R)-1-[(2S)-2-[3-(2-{4-[5-cyclopropyl-3-(2-hydroxyphenyl)pyrrolo[3,2-c]pyridazin-6-yl]piperidin-1-yl}pyrimidin-5-yl)-1,2-oxazol-5-yl]-3-methylbutanoyl]-4-hydroxy-N-[(1S)-1-[4-(4-methyl-1,3-thiazol-5-yl)phenyl]ethyl]pyrrolidine-2-carboxamide], on HiBit-BRM fusion protein, the “BRM HiBit Degradation Maximum (%)” value is given as “C (“C” indicates maximum degradation <50%)”. Further, in assay [1], the Dmax was less than 50%.

In the case of `Cc1ncsc1-c1ccc([C@H](C)NC(=O)[C@@H]2C[C@@H](O)CN2C(=O)[C@@H](C(C)C)n2cc(-c3cnc(N4CC[C@H](c5cc6nnc(-c7ccccc7O)cc6n5C5CC5)C4)nc3)nn2)cc1` [Compound 75, (2S,4R)-1-((R)-2-(4-(2-((S)-3-(5-cyclopropyl-3-(2-hydroxyphenyl)-5H-pyrrolo[3,2-c]pyridazin-6-yl)pyrrolidin-1-yl)pyrimidin-5-yl)-1H-1,2,3-triazol-1-yl)-3-methylbutanoyl)-4-hydroxy-N—((S)-1-(4-(4-methylthiazol-5-yl)phenyl)ethyl)pyrrolidine-2-carboxamide], at HiBit-BRM fusion protein, the “BRM HiBit Degradation Maximum (%)” value was “A (“A” indicates maximum degradation ≥75%)” and the DC50 was more than 10 nM. The Dmax in assay [1] is less than 50%.

For `C#Cc1ccc(CNC(=O)[C@@H]2C[C@@H](O)CN2C(=O)C(c2cc(N3CC4(CC(c5cc6nnc(-c7ccccc7O)cc6n5C5CCC5)C4)C3)no2)C(C)C)c(OCCCOC)c1` (stereo partly drawn) [Compound 52, (2S,4R)-1-(2-(3-(6-(5-cyclobutyl-3-(2-hydroxyphenyl)-5H-pyrrolo[3,2-c]pyridazin-6-yl)-2-azaspiro[3.3]heptan-2-yl)isoxazol-5-yl)-3-methylbutanoyl)-N-(4-ethynyl-2-(3-methoxypropoxy)benzyl)-4-hydroxypyrrolidine-2-carboxamide], on HiBit-BRM fusion protein, the “BRM HiBit Degradation Maximum (%)” value is recorded as “A (“A” indicates maximum degradation ≥75%)” and the DC50 was less than 10 nM. Moreover, the Dmax in assay [1] is less than 50%.

With `Cc1ncsc1-c1ccc([C@H](C)NC(=O)[C@@H]2C[C@@H](O)CN2C(=O)[C@@H](c2cc(-c3cnc(N4CCC(c5cc6nnc(-c7ccccc7O)cc6n5C(C)C)CC4)nc3)no2)C(C)C)cc1` [Compound 45], on HiBit-BRM fusion protein, the “BRM HiBit Degradation Maximum (%)” value is given as “A (“A” indicates maximum degradation ≥75%)” and the DC50 was less than 10 nM. Besides, in assay [1], the Dmax is more than 75% and the DC50 was less than 10 nM.

Take `Cc1ncsc1-c1ccc([C@H](C)NC(=O)[C@@H]2C[C@@H](O)CN2C(=O)[C@H](c2cc(-c3cnc(N4CCC(c5cc6nnc(-c7ccccc7O)cc6n5C5(C)CC5)CC4)nc3)no2)C(C)C)cc1` [Compound 42]: on HiBit-BRM fusion protein, the “BRM HiBit Degradation Maximum (%)” value is given as “B (“B” indicates maximum degradation ≥50%)” and the DC50 is more than 10 nM. Also, the Dmax in assay [1] is less than 50%.
